Source: patent US8865750B2, “Small molecule inhibitors of RGS proteins” (The Regents of The University of Michigan, priority 2011, dated 2014)
Like-named read-outs stand apart in the source and are kept apart here.

Key:
RGS19 = RGS19 (Homo sapiens (Human), UniProt P49795); test: FCPIA: Gαo binding to RGS19; conditions: Table 7
Protocol: (§1) FCPIA Dose Response and Reversibility Experiments:
(§2) FCPIA was performed as previously described using chemically biotinylated RGS proteins and AlexaFluor-532 labeled Gα0. (Roman et al., J Biomol Screen, 2009; Blazer, L. L., et al., Mol Pharmacol).
(§3) RGS/Gα binding studies: The binding of biotinylated RGS proteins to fluorescently labeled Gαo was measured by Flow Cytometry Protein Interaction Assay (FCPIA) method previously described (Roman et al., (2009) J Biomol Screen.; Blazer et al., (2010) Curr Protoc Cytom Chapter 13, Unit 13 11 11-15; Roman et al., (2007) Mol Pharmacol 71, 169-175) as were the measures of compound reversibility.

papain = papain (Carica papaya (Papaya), UniProt P00784); test: biochemical; assay type: biochemical
Excerpt: Papain (Sigma-Aldrich, St. Louis, Mo.) activity was monitored by the increase in fluorescence caused by the liberation of fluorescein from autoquenched fluorescein-conjugated casein (AnaSpec, San Jose, Calif.).

RGS4/Gα0 interaction = RGS4/Gα0 interaction (Homo sapiens (Human), UniProt P49798); test: RGS4-GFP membrane translocation (confocal microscopy, HEK-293T); assay type: cell-based; conditions: 100 μM where stated
Protocol: Cellular Localization Studies:
HEK-293T cells grown to 80-90% confluency in 6-well dishes in DMEM supplemented with 10% fetal bovine serum and Penicillin (100 units/ml)-Streptomycin (100 μg/ml) under 5% CO2 at 37° C. RGS and Gα0 expression was induced by transient co-transfection with either 250 ng of full-length human RGS4 with an N-terminal GFP tag (RGS4pEGFP-C1) or a C-terminal RGS4-GFP (RGS4pDEST47) and 250 ng of pcDNA3.1 or pcDNA with wildtype human Gα0. Cells were split onto poly-D-lysine coated glass coverslips and cultured for 24-48 hours after transfection before live cell imaging. Images were acquired on an Olympus Fluoview 500 confocal microscope with a 60×1.40 numerical aperture (N.A) oil objective. Images were obtained by taking a series of stacks every 0.5 μm through the cell and combining the images into a composite stack. The light source for the fluorescent studies was a 488 nm laser with a 505-525 nm bandpass filter. Images were quantified using NIH ImageJ software version 1.43r.
Confocal Microscopy: HEK-293T cells grown to 80-90% confluency in 6-well dishes in DMEM supplemented with 10% fetal bovine serum and Penicillin (100 units/ml)-Streptomycin (100 μg/ml) under 5% CO2 at 37° C. […] Images were quantified using NIH ImageJ software version 1.43r.

RGS4 [1] = target: RGS4 (Homo sapiens (Human), UniProt P49798); test: Steady-state GAP assay (malachite green); assay type: biochemical
Protocol: Steady-state GAP Assay: Steady-state hydrolysis of unlabled GTP was measured using malachite green in a receptor-independent assay utilizing a mutant Gαi1 (R178M, A326S) (Zielinski et al., (2009) J Biomol Screen 14, 1195-1206). These mutations facilitate the release of GDP from the enzyme making the GTP hydrolysis step rate-limiting (Lielinski et al., supra). […] The reaction is allowed to proceed for 2 hours at room temperature and then quenched with an H2SO4/malachite green dye solution. Immediately after addition of malachite green, sodium citrate was added as a colorimetric stablizer. Released inorganic phosphate was measured as an increase in absorbance (Abs630) from the complex of phosphate with malachite green (Chang, et al., 2008). Background control samples lacking Gα or RGS were used to determine the rate of non-enzymatic GTP hydrolysis.

RGS7 = RGS7 (Homo sapiens (Human), UniProt P49802); test: FCPIA: Gαo binding to RGS7; conditions: Table 7
Protocol: as §1, §2, §3

HEK293 cells = test: Calcium mobilization induced by compound alone; assay type: cell-based;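 for Calcium transient (% 50014): percent of response to 10 µM reference CCG-50014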
Procedure, shortened: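 HEK-293 Flp-In TREx cells stably expressing muscarinic M3 receptor, with human RGS4 induced by 1 μg/mL doxycycline for 24-48 h, loaded with Fluo-4 for 30 min at 37° C. Compound added without carbachol; fluorescence followed for 120 s, quantified as area under curve or peak intensity.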

RGS4 [2] = test: FCPIA: Gαo binding to RGS4
Excerpt: as §1

RGS8 = RGS8 (Homo sapiens (Human), UniProt P57771); test: FCPIA: Gαo binding to RGS8
Excerpt: as §1

Solubility experiments = assay type: physicochemical; conditions: water; aqueous
Protocol: Compounds were diluted to 100 mM in DMSO and the further diluted to 500 μM in H2O, vortexed and centrifuged for 10 minutes at 13,000×g at ambient temperature.

[3] = Heart rate and blood pressure in freely-moving rats; assay type: in vivo
Excerpt: The muscarinic agonist carbachol can induce a transient bradycardic effect by activating M2 receptors in the SAN.

RGS8, sequence (P57771 other isoform, or with tags, fused parts or gaps): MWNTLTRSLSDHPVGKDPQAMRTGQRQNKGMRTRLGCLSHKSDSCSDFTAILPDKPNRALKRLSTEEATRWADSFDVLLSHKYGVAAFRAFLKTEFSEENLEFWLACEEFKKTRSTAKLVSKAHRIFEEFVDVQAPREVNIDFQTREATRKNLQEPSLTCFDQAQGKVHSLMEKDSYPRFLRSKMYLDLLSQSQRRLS
papain, sequence (P00784 134-345): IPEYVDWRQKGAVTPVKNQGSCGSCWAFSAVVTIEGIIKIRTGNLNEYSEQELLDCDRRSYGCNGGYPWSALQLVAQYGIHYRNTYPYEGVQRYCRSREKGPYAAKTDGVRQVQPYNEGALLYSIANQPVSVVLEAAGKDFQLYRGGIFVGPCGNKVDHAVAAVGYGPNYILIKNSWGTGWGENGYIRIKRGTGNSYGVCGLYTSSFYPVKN
RGS4/Gα0 interaction, sequence (P49798 whole entry): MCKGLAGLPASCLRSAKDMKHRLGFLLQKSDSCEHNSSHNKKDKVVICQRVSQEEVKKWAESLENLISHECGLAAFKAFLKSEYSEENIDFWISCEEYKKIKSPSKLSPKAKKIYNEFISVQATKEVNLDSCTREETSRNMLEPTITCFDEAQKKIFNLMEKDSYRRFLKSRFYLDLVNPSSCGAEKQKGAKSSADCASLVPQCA
RGS4 (Homo sapiens (Human), UniProt P49798), sequence (P49798 whole entry, species assumed): as the sequence (P49798 whole entry) above
RGS7, sequence (P49802 whole entry, species assumed): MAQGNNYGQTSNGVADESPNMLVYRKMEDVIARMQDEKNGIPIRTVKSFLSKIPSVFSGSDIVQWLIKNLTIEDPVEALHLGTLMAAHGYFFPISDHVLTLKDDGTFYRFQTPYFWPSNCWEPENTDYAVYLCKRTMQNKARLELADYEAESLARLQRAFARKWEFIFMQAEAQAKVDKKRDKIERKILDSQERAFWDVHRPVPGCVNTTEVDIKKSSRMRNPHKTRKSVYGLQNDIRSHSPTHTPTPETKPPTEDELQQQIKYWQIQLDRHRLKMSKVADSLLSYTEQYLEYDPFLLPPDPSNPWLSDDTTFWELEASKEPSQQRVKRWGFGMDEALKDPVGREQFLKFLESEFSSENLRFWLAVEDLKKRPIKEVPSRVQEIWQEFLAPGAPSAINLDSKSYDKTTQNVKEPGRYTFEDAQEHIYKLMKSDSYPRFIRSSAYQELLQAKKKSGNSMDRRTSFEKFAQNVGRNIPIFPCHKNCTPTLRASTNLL
RGS19, sequence (P49795 whole entry, species assumed): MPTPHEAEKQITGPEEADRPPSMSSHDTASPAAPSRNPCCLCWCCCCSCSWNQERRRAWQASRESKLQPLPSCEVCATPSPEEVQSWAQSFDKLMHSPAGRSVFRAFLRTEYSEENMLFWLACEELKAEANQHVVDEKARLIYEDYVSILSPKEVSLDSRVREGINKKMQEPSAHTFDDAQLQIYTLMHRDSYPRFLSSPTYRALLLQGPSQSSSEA

Q: For CCCCn1c(=O)sn(CC)c1=O [CCG-203769, 2-ethyl-4-butyl-1,2,4-thiadiazolidine-3,5-dione], which IC50 (RGS19) is on record?
A: The IC50 was 0.14 µM.

Q: What about the inhibition of papain (papain; 30 μM) of the same compound?
A: The inhibition of papain was “unable to inhibit the protease activity of papain”.

Q: What about the IC50 (papain; Table 7) of the same compound?
A: The IC50 was > 100 µM.

Q: And the “reversal of Gα0-induced RGS4 membrane translocation” value (RGS4/Gα0 interaction)?
A: Its value is “reverses the membrane translocation”.

Q: And the “inhibition of RGS4 effect in steady-state GTPase assay” value (RGS4 [1])?
A: Its value is “potently inhibits the functional effect of RGS4”.

Q: And the IC50 (RGS7)?
A: The IC50 was > 100 µM.

Q: What about the “induction of calcium transient by compound alone” value (HEK293 cells; 10 μM, HEK293 cells) of the same compound?
A: Its value is “no ability to induce calcium mobilization”.

Q: What about the Emax at 10 µM (HEK293 cells; Homo sapiens, HEK293, read-out: Calcium transient (% 50014)) of the same compound?
A: Its Emax at 10 µM is 2.7%.

Q: And the “reversibility of RGS4 inhibition after washing” value (RGS4 [2]; 100 μM CCG-50014 or 500 nM CCG-203769, beads washed)?
A: Its value is “irreversible”.

Q: What about the IC50 (RGS4 [2]; FCPIA, listed as 11b, read-out: IC50 against RGS4) of the same compound?
A: Its IC50 is 0.0144 µM.

Q: What about the “RGS4 Hill Slope” value (RGS4 [2]; Table 3) of the same compound?
A: Its value is −0.71.

Q: What about the “RGS8 Hill Slope” value (RGS8; Table 3) of the same compound?
A: Its value is −0.56.

Q: And the IC50 (RGS8; Table 6, FCPIA, read-out: RGS8 IC50)?
A: Its IC50 is 83.5 µM.

Q: What about the IC50 (RGS8; Table 7, read-out: IC50 (μM), RGS8) of the same compound?
A: The IC50 was 79 µM.

Q: What about the solubility (Solubility experiments) of the same compound?
A: Its solubility is > 5 mM.

Q: What about the “blood pressure, carbachol plus compound” value ([3]; 10 mg/kg IV + carbachol 0.1 mg/kg IP) of the same compound?
A: Its value is “does not reach statistical significance”.

Q: And the “bradycardic effect of carbachol after compound” value ([3]; 10 mg/kg IV before carbachol 0.1 mg/kg IP)?
A: Its value is “significantly potentiated”.

Q: And the “effect upon blood pressure, compound alone” value ([3]; 10 mg/kg, IV)?
A: The value was “no significant effect”.

Q: And the “effect upon heart rate, compound alone” value ([3]; 10 mg/kg, IV)?
A: Its value is “no significant effect”.
